This note sets out measurements from patent publication US20250129018A1, “PLEUROMUTILIN DERIVATIVES CONTAINING CYCLOALKYL GROUP AND PREPARATION METHODS AND APPLICATIONS THEREOF” (priority 2023, published 2025).

≈ marks a conversion by molar mass, not a printed value. Like-named read-outs stand apart in the source and are kept apart here.

One assay concerns MRSE. Briefly: MIC, two-fold serial dilution method. In kind it is cell-based, Methicillin-resistant Staphylococcus epidermidis. The conditions noted are these: for MIC: Staphylococcus epidermidis, read-out: minimum inhibitory concentration. How it is done:
(§1) The pleuromutilin derivatives 1-4 prepared from Example 9 of the present disclosure were determined for their effect on Methicillin-resistant Staphylococcus aureus, Methicillin-resistant Staphylococcus epidermidis, standard strains of Staphylococcus aureus (S. aureus-29213 and S. aureus-25923), clinical strains 1-48 of S. aureus, Escherichia coli, S. agalactiae and S. dysgalactiae equisimilis (S. dysgalactiae-1, S. dysgalactiae-2, S. dysgalactiae-3) and minimum inhibitory concentration (MIC) using a two-fold serial dilution method, and the results were shown in Table 1, Table 2 and Table 3. The standard strains are commercially available from ATCC, and the clinical strains are preserved by Lanzhou Institute of Husbandry and Pharmaceutical Science of Chinese Academy of Agricultural Sciences (Lanzhou, Gansu, China).

Another assay deals with E. coli-25922. Description: MIC, two-fold serial dilution method. Particulars: for MIC: Escherichia coli, read-out: minimum inhibitory concentration. The assay is classed as cell-based, Escherichia coli. How it is done:
as §1

The next assay has as its system S. agalactiae-1. Description: MIC, two-fold serial dilution method. In kind it is cell-based. Particulars: for MIC: Streptococcus agalactiae, read-out: minimum inhibitory concentration. How it is done:
as §1

Another assay relates to S. dysgalactiae-1. Description: MIC, two-fold serial dilution method. In kind it is cell-based, S. dysgalactiae equisimilis. Particulars: for MIC: Streptococcus dysgalactiae, read-out: minimum inhibitory concentration. How it is done: as §1
A further assay relates to S. dysgalactiae-2. Briefly: MIC, two-fold serial dilution method. The assay is classed as cell-based, S. dysgalactiae equisimilis. The conditions noted are these: for MIC: Streptococcus dysgalactiae, read-out: minimum inhibitory concentration. The method, then:
as §1

Another assay has as its system S. dysgalactiae-3. Briefly: MIC, two-fold serial dilution method. In kind it is cell-based, S. dysgalactiae equisimilis. The conditions noted are these: for MIC: Streptococcus dysgalactiae, read-out: minimum inhibitory concentration. How it is done: as §1
A further assay deals with S. aureus-14. Briefly: MIC, clinical strain. In kind it is cell-based, Staphylococcus aureus. The method, then:
as §1

Another assay deals with S. aureus-17. Description: MIC, clinical strain. In kind it is cell-based, Staphylococcus aureus. How it is done: as §1
For a further assay, the system named is S. aureus-18. Description: MIC, clinical strain. The assay is classed as cell-based, Staphylococcus aureus. The method, then:
as §1

The next assay has as its system S. aureus-26. Briefly: MIC, clinical strain. The assay is classed as cell-based, Staphylococcus aureus. The method, then: as §1
For the next assay, the system named is S. aureus-27. Description: MIC, clinical strain. In kind it is cell-based, Staphylococcus aureus. How it is done:
as §1

In a further assay the test system is S. aureus-31. Briefly: MIC, clinical strain. The assay is classed as cell-based, Staphylococcus aureus. The method, then:
as §1

The next assay relates to S. aureus-43. Briefly: MIC, clinical strain. In kind it is cell-based, Staphylococcus aureus. How it is done: as §1
The test system of a further assay is S. aureus-48. Briefly: MIC, clinical strain. The assay is classed as cell-based, Staphylococcus aureus. How it is done:
as §1

A further assay has as its system S. aureus-8. Description: MIC, clinical strain. In kind it is cell-based, Staphylococcus aureus. The method, then: as §1
The subject of another assay is MRSA-337371. Description: In vivo antimicrobial activity experiment in mice (systemic MRSA infection, survival). The conditions noted are these: for protection rate against systemic MRSA infection in mice: 20 mg/kg; for mortality rate / final survival rate: immunosuppressed mice infected i.p. with MRSA-337371; for final survival rate: end of observation. The method, then:
First, an MRSA-337371 cryopreservation solution was taken out from a freezer set at −80° C. and the following steps were performed: • (1) 10 μL of the thawed MRSA-337371 cryopreservation solution was pipetted and added into 6 mL of Tryptic Soy Broth (TSB), and incubated until the bacterial solution had become turbid; • (2) a sterile inoculation loop was dipped into and picked up a small amount of the bacterial solution and was dragged on an MH agar medium for streaking, and then the MH agar medium was inverted and placed in a constant temperature incubator at 37° C. to incubate for 24 hours; • (3) a single colony on the MH agar medium was picked and inoculated in 30 mL of MH liquid medium with an inoculation loop, and placed in a constant temperature shaking incubator at 37° C. for 18 hours for later use. […]
6-week-old, about 20 g-weighted, SPF-grade healthy mice (one half male and the other female) were randomly divided into 5 groups, with 10 mice in each group (one half male and the other female), which were specifically divided into a positive control group (an MRSA infection group), a negative control group (a sterile normal saline control group, which was injected with only 10 mL/kg of drug solvent), drug control groups (a Tiamulin treatment group and a Valnemulin treatment group) and an experimental group (a derivative 2 treatment group). 100 mg/kg of cyclophosphamide was intraperitoneally injected to the mice 4 days before the experiment, and 150 mg/kg of cyclophosphamide injection was injected to the mice 1 day before the experiment to keep the mice in an immunosuppressed state. After fasting for 12 hours, except for the negative control group, the remaining 4 groups were intraperitoneally injected with 0.5 mL of 10^8 CFU/mL bacterial solution, and after 30 min, the drug control groups and the experimental group were intravenously injected with 20 mg/kg of the respective drug. The mice were continued to be reared, and observed to record the deaths daily.
Calculation of survival rate: During the experiment, the morbidity and the mortality in each group of mice was observed and recorded in detail every day, and the survival rate in each group of mice was calculated as:
Survival rate=Number of surviving animals/Number of experimental animals×100%

Where [1] appears, read: day 1, 20 mg/kg intravenously 30 min after infection.

With `C=C[C@]1(C)C[C@@H](OC(=O)CSCCN(CC)CC)[C@]2(C)[C@H](C)CC[C@]3(CCC(=O)[C@H]32)[C@@H](C)[C@@H]1O` [Tiamulin], the MIC with MRSE was 0.5 µg/mL (≈ 1.01 µM); in the assay on E. coli-25922 (E. coli-25922) it was over 16 µg/mL; in the assay on S. agalactiae-1 (S. agalactiae-1), 0.25 µg/mL (≈ 0.506 µM); in the assay on S. dysgalactiae-1 (S. dysgalactiae-1), 0.25 µg/mL (≈ 0.506 µM); with S. dysgalactiae-2 (S. dysgalactiae-2), 0.25 µg/mL (≈ 0.506 µM); with S. dysgalactiae-3 (S. dysgalactiae-3) it was 0.25 µg/mL (≈ 0.506 µM). The “in vitro minimum inhibitory concentration” value in the assay with S. aureus-14 was found to be 0.5; in the assay on S. aureus-17, 0.5; in the assay with S. aureus-18, 0.125; in the assay with S. aureus-26, 0.5; in the assay on S. aureus-27, 0.5; with S. aureus-31, 0.5. The “in vitro minimum inhibitory concentration” value worked out at 1 in the assay on S. aureus-43, 0.5 in the assay with S. aureus-48 and 0.5 with S. aureus-8. Besides, in the assay on MRSA-337371, the “protection rate against systemic MRSA infection in mice” value (“protection rate” for short) is 10%. For the same compound, the mortality rate with MRSA-337371 (setting [1]) is listed as 50%; in the assay on MRSA-337371 (day 2, 20 mg/kg intravenously), 80%; in the assay on MRSA-337371 (day 3, 20 mg/kg intravenously) it was 90%. For the same compound, in the assay on MRSA-337371 (20 mg/kg intravenously), the final survival rate is 10%.
On to `C=C[C@]1(C)C[C@@H](OC(=O)CSC(C)(C)CNC(=O)[C@H](N)C(C)C)[C@]2(C)[C@H](C)CC[C@]3(CCC(=O)[C@H]32)[C@@H](C)[C@@H]1O` [Valnemulin], for which the MIC in the assay on MRSE came out at 0.031 µg/mL (≈ 0.0549 µM); in the assay with E. coli-25922, 16 µg/mL (≈ 28.3 µM); in the assay with S. agalactiae-1, 0.031 µg/mL (≈ 0.0549 µM); with S. dysgalactiae-1, 0.031 µg/mL (≈ 0.0549 µM); with S. dysgalactiae-2 it was 0.031 µg/mL (≈ 0.0549 µM); with S. dysgalactiae-3 it was 0.031 µg/mL (≈ 0.0549 µM). Moreover, the “in vitro minimum inhibitory concentration” value with S. aureus-14 is given as 0.125; in the assay on S. aureus-17 it was 0.063; in the assay with S. aureus-18 it was 0.063; in the assay on S. aureus-26 it was 0.063; in the assay on S. aureus-27 it was 0.063; with S. aureus-31 it was 0.063. Moreover, the “in vitro minimum inhibitory concentration” value with S. aureus-43 is 0.063; in the assay with S. aureus-48, 0.125; with S. aureus-8 it was 0.063. For the same compound, the “protection rate” value with MRSA-337371 is recorded as 20%. In addition, the mortality rate is listed as 30% with MRSA-337371 (setting [1]) and 80% in the assay on MRSA-337371 (day 2, 20 mg/kg intravenously). Besides, the final survival rate with MRSA-337371 (20 mg/kg intravenously) came out at 20%.
Regarding `C=CC1(C)CC(OC(=O)CSC(C)(C)CNC(=O)C2CCC2)C2(C)C(C)CCC3(CCC(=O)C32)C(C)C1O` (centres unmarked) [derivative 2], the minimum inhibitory concentration with MRSE was 0.031 µg/mL (≈ 0.0566 µM); with E. coli-25922 (E. coli-25922), over 16 µg/mL; with S. agalactiae-1 (S. agalactiae-1), 0.031 µg/mL (≈ 0.0566 µM); in the assay with S. dysgalactiae-1 (S. dysgalactiae-1) it was 0.031 µg/mL (≈ 0.0566 µM); with S. dysgalactiae-2 (S. dysgalactiae-2), 0.031 µg/mL (≈ 0.0566 µM); with S. dysgalactiae-3 (S. dysgalactiae-3), 0.031 µg/mL (≈ 0.0566 µM). In addition, the “in vitro minimum inhibitory concentration” value is on record as 0.063 in the assay with S. aureus-14; 0.063 in the assay with S. aureus-17; 0.031 in the assay on S. aureus-18; 0.063 in the assay with S. aureus-26; 0.031 in the assay with S. aureus-27; 0.031 in the assay with S. aureus-31. Also, the “in vitro minimum inhibitory concentration” value in the assay on S. aureus-43 is listed as 0.016; with S. aureus-48, 0.063; in the assay on S. aureus-8, 0.063. Besides, the “protection rate” value with MRSA-337371 came to 60%. In addition, the “treatment effect in mice” value in the assay on MRSA-337371 (compared with marketed drugs) was “superior to the marketed Tiamulin and Valnemulin”. Moreover, the mortality rate with MRSA-337371 (setting [1]) was 10%; in the assay on MRSA-337371 (day 2, 20 mg/kg intravenously), 40%. Besides, the final survival rate in the assay with MRSA-337371 (20 mg/kg intravenously) stood at 60%.
